For orientation: pEC50 means the negative decadic logarithm of the EC50, by convention in mol/L.

pEC50: −log10 of the molar value. A value given as a limit tells only on which side of the number the result lay.

In one assay the test system is HIV (HTLV-III B strain). In words: HIV replication inhibition assay (MTT, MT-4 cells). Format: cell-based. Conditions: Human immunodeficiency virus 1, MT4, 96 h, 4 days culture, concentration at which cell cytotoxicity by virus is inhibited 50%. The protocol: HIV (HTLV-III B strain) persistent infected human T cell strain Molt-4 clone 8 was cultured in 10% Fetal Bovine Serum-containing RPMI-1640 medium and the supernatant was filtrated, then the virus titer was measured and the solution was stored at −80° C. Each anti-human immunodeficiency virus active substance was diluted with the above cultured medium to the designated concentration, which was dispensed into 96 well micro plate by 50 μL. Next, a MT-4 cell suspended liquid was dispensed by 100 μL (2.5×10^4 cells), then the above HIV-containing supernatant diluted with the above cultured medium was added thereto by 50 μL (60 pfu (plaque forming unit)).
The obtained mixture was cultured at 37° C. in CO2 incubator for four days, then 3-(4,5-dimehylthiazole-2-yl)-2,5-diphenyltetrazolynium bromide (MTT) 5 mg/mL in PBS was added to each well by 30 μL, followed by 1 hr-cultivation. In this step, as formazan was precipitated by reduction of MTT in living cells, the cell supernatant was removed from all well by 150 μL, then a 150 μL of solution (10% Triton X-100 and […]) was added thereto, followed by shaking with a plate mixer, to elute formazan. The formazan was measured with a microreader at OD: 560 nm and 690 nm (wavelength) and the result was compared with the reference. EC50 means the compound concentration at which cell cytotoxicity by virus is inhibited 50%.
Regarding `Cc1ccc(-c2c(C)c3c(c(C)c2[C@H](OC(C)(C)C)C(=O)O)N(S(C)(=O)=O)Cc2cc(Cl)ccc2-3)cc1` [Compound 301], the pEC50 is 8.31. Still for that read-out and setting: under `Cc1ccc(-c2c(C)c3c(c(C)c2[C@H](OC(C)(C)C)C(=O)O)N(S(C)(=O)=O)Cc2cccc(Cl)c2-3)cc1` [Compound 302] stands 7.55; under `Cc1c([C@H](OC(C)(C)C)C(=O)O)c(-c2ccc3c(c2)CCCO3)c(C)c2c1ncc1ccsc12` [Compound 17], 7.23; under `Cc1ccc(-c2c(C)c3c(c(C)c2[C@H](OC(C)(C)C)C(=O)O)S(=O)(=O)Cc2cc(F)cc(F)c2-3)cc1` [Compound 298], 7.52.

In the case of `Cc1c(-c2cc(F)c3c(c2F)CCCO3)c([C@H](OC(C)(C)C)C(=O)O)c(C)c2c1-c1c(F)ccc(F)c1CN2S(C)(=O)=O` [Compound 299], the pEC50 is 7.59. Same read-out and setting: under `Cc1ccc(-c2c(C)c3c(c(C)c2[C@H](OC(C)(C)C)C(=O)O)N(S(C)(=O)=O)Cc2oc(C)nc2-3)cc1` [Compound 305] stands 7.55.

The assay is the same for the next values; noted with them: Human immunodeficiency virus 1, MT4, 96 h, Table A-2, four days.
With `Cc1ccc(-c2c(C)c3c(c(C)c2[C@H](OC(C)(C)C)C(=O)O)N(S(C)(=O)=O)Cc2cc(C)ccc2-3)cc1` [Compound 115], the pEC50 was 8.22. The compound `Cc1ccc(-c2c(C)c3c(c(C)c2[C@H](OC(C)(C)C)C(=O)O)NS(=O)(=O)N(C(c2ccccc2)c2ccccc2)CC3)cc1` [Compound 134] showed a pEC50 of 7.21. Still for that read-out and setting: the figure for `Cc1ccc(-c2c([C@H](OC(C)(C)C)C(=O)O)c(C)c3nc(O)c4cc5ccsc5nc4c3c2C)cc1` [Compound 101] is 7.77; for `Cc1ccc(-c2c([C@H](OC(C)(C)C)C(=O)O)c(C)c3ncc4cc5ccccc5nc4c3c2C)cc1` [Compound 99] it is 7.01. Same read-out and setting: under `Cc1ccc(-c2c(C)c3c(c(C)c2[C@H](OC(C)(C)C)C(=O)O)NS(=O)(=O)N(CC2CCCCC2)CC3)cc1` [Compound 130] stands 7.92; under `Cc1ccc(-c2c(C)c3c(c(C)c2[C@H](OC(C)(C)C)C(=O)O)NS(=O)(=O)N(C2CCCCCC2)CC3)cc1` [Compound 128], 8.00.

Staying with this assay, now noted: Human immunodeficiency virus 1, MT4, 96 h, Table A-3, four days.
Consider `Cc1ccc(-c2c(C)c3c(c(C)c2[C@H](OC(C)(C)C)C(=O)O)N(S(C)(=O)=O)Cc2cc(F)ccc2-3)cc1` [Compound 167], for which the pEC50 is 8.07. Still for that read-out and setting: under `Cc1ccc(-c2c([C@H](OC(C)(C)C)C(=O)O)c(C)c3nc(O)c4c(c3c2C)CCN(S(=O)(=O)c2ccc(F)cc2)C4)cc1` [Compound 153] stands 7.33; under `Cc1ccc(-c2c(C)c3c(c(C)c2[C@H](OC(C)(C)C)C(=O)O)NC(=O)N(CC2CCCCC2)CC3)cc1` [Compound 150], 7.66; under `Cc1ccc(-c2c(C)c3c(c(C)c2[C@H](OC(C)(C)C)C(=O)O)N(S(C)(=O)=O)Cc2cc(C(F)(F)F)ccc2-3)cc1` [Compound 159], 8.28. Same read-out and setting: under `Cc1ccc(-c2c(C)c3c(c(C)c2[C@H](OC(C)(C)C)C(=O)O)NC(=O)N(C(c2ccccc2)c2ccccc2)CC3)cc1` [Compound 152] stands 7.80.

Consider `Cc1ccc(-c2c(C)c3c(c(C)c2[C@H](OC(C)(C)C)C(=O)O)N(S(C)(=O)=O)Cc2c(F)ccc(F)c2-3)cc1` [Compound 142], for which the pEC50 was 8.36.

On to `Cc1ccc(-c2c(C)c3c(c(C)c2[C@H](OC(C)(C)C)C(=O)O)NC(=O)C2(CCCCCC2)N3)cc1` [Compound 140], for which the pEC50 is 8.51.

The assay is the same for the next values; noted with them: Human immunodeficiency virus 1, MT4, 96 h, Table A-4, four days.
With `Cc1c(-c2c(C)c3c(c(C)c2[C@H](OC(C)(C)C)C(=O)O)N(S(C)(=O)=O)Cc2c(F)ccc(F)c2-3)ccc2c1CCCO2` [Compound 246], the pEC50 was 8.64.

For `Cc1c(-c2c([C@H](OC(C)(C)C)C(=O)O)c(C)c3nc(O)c4cc(F)cnc4c3c2C)ccc2c1CCCO2` [Compound 218], the pEC50 was 8.19. The same measure, in the same setting: under `Cc1c(-c2c(C)c3c(c(C)c2[C@H](OC(C)(C)C)C(=O)O)N(S(C)(=O)=O)Cc2cccc(F)c2-3)ccc2c1CCCO2` [Compound 224] stands 8.60; under `Cc1ccc(-c2c([C@H](OC(C)(C)C)C(=O)O)c(C)c3nc(O)c4ccc(C(F)(F)F)nc4c3c2C)cc1` [Compound 216], 7.34.

Compound `Cc1ccc(-c2c([C@H](OC(C)(C)C)C(=O)O)c(C)c3ncc4cc(F)cnc4c3c2C)cc1` [Compound 239] had a pEC50 of 7.09. Same read-out and setting: the figure for `Cc1ccc(-c2c(C)c3c(c(C)c2[C@H](OC(C)(C)C)C(=O)O)N(S(C)(=O)=O)Cc2ccc(F)c(F)c2-3)cc1` [Compound 220] is 8.14. Still for that read-out and setting: the figure for `Cc1ccc(-c2c([C@H](OC(C)(C)C)C(=O)O)c(C)c3nc(O)c4cc5c(cc4c3c2C)OCCO5)cc1` [Compound 232] is 7.92; for `Cc1ccc(-c2c(C)c3c(c(C)c2[C@H](OC(C)(C)C)C(=O)O)N(S(C)(=O)=O)Cc2cc(F)cc(F)c2-3)cc1` [Compound 212] it is 8.72. The compound `Cc1ccc(-c2c([C@H](OC(C)(C)C)C(=O)O)c(C)c3nc(O)c4cc(F)c(F)cc4c3c2C)cc1` [Compound 231] had a pEC50 of 7.11.

The assay is the same for the next values; noted with them: Human immunodeficiency virus 1, MT4, 96 h, Table A-5, four days.
In turn, `COc1ccc(-c2c(C)c3c(c(C)c2[C@H](OC(C)(C)C)C(=O)O)N(S(C)(=O)=O)Cc2cccc(F)c2-3)c(C)c1` [Compound 275] gave a negative-log EC50 (pEC50) of 7.82. The same measure, in the same setting: the figure for `Cc1c(-c2c(C)c3c(c(C)c2[C@H](OC(C)(C)C)C(=O)O)N(S(C)(=O)=O)Cc2c(F)ccc(F)c2-3)ccc2c1NCCO2` [Compound 249] is 8.24. `Cc1c(-c2ccc3c4c(ccnc24)CCO3)c([C@H](OC(C)(C)C)C(=O)O)c(C)c2c1-c1c(F)cccc1CN2S(C)(=O)=O` [Compound 262] had a pEC50 of 7.60. The same measure, in the same setting: the figure for `Cc1ccc(-c2c(C)c3c(c(C)c2[C@H](OC(C)(C)C)C(=O)O)N(S(C)(=O)=O)Cc2cc(F)cnc2-3)cc1` [Compound 284] is 7.80.

The compound `Cc1c(C2=CCC(C)(C)CC2)c([C@H](OC(C)(C)C)C(=O)O)c(C)c2c1-c1c(F)cccc1CN2S(C)(=O)=O` [Compound 258] showed a negative logarithm of the EC50 (pEC50) of 8.41.

Compound `COc1ccc(-c2c(C)c3c(c(C)c2[C@H](OC(C)(C)C)C(=O)O)N(S(C)(=O)=O)Cc2cccc(F)c2-3)cc1` [Compound 263] showed a negative-log EC50 (pEC50) of 7.92. The same measure, in the same setting: the figure for `Cc1c(-c2c(C)c3c(c(C)c2[C@H](OC(C)(C)C)C(=O)O)N(S(C)(=O)=O)Cc2cccc(F)c2-3)cc(F)c2c1CCCO2` [Compound 273] is 8.35.

Staying with this assay, now noted: Human immunodeficiency virus 1, MT4, 96 h, Table A-7, four days.
For the compound `Cc1c(-c2c(C)c3c(c(C)c2[C@H](OC(C)(C)C)C(=O)O)N(S(C)(=O)=O)Cc2cccc(F)c2-3)ccc2c1OCCO2` [Compound 360], the pEC50 was 8.36. Same read-out and setting: the figure for `Cc1cccc2c1-c1c(C)c(-c3ccc4c(c3C)NCCO4)c([C@H](OC(C)(C)C)C(=O)O)c(C)c1N(S(C)(=O)=O)C2` [Compound 347] is 7.66. The same measure, in the same setting: under `Cc1c(-c2ccc(F)cc2O)c([C@H](OC(C)(C)C)C(=O)O)c(C)c2c1-c1c(F)ccc(F)c1CN2S(C)(=O)=O` [Compound 332] stands 7.62. For `Cc1c(-c2ccc(Cl)cc2O)c([C@H](OC(C)(C)C)C(=O)O)c(C)c2c1-c1c(F)cccc1CN2S(C)(=O)=O` [Compound 324], the pEC50 was 8.09. Still for that read-out and setting: under `Cc1ccc(-c2c(C)c3c(c(C)c2[C@H](OC(C)(C)C)C(=O)O)N(S(C)(=O)=O)Cc2cccc(F)c2-3)s1` [Compound 334] stands 7.66.

Still in this assay, the particulars now being: Human immunodeficiency virus 1, MT4, 96 h, Table A-8 (continuation of Tables A-1 to A-9), four days.
Take `COc1nc2c(cc1F)CN(S(C)(=O)=O)c1c(C)c([C@H](OC(C)(C)C)C(=O)O)c(-c3ccc(C)cc3)c(C)c1-2` [Compound 389]: the negative-log EC50 (pEC50) is 7.17.

`Cc1ccc(-c2c(C)c3c(c(C)c2[C@H](OC(C)(C)C)C(=O)O)N(S(C)(=O)=O)Cc2ccc(C(F)(F)F)nc2-3)cc1` [Compound 397] had a negative logarithm of the EC50 (pEC50) of 7.48. Still for that read-out and setting: the figure for `Cc1c(-c2ccc(Cl)c3[nH]ccc23)c([C@H](OC(C)(C)C)C(=O)O)c(C)c2c1-c1c(F)cccc1CN2S(C)(=O)=O` [Compound 364] is 7.80. In the case of `Cc1c(-c2ccc3c(c2)NCC3)c([C@H](OC(C)(C)C)C(=O)O)c(C)c2c1-c1c(F)cccc1CN2S(C)(=O)=O` [Compound 363], the pEC50 was 7.85.

Staying with this assay, now noted: Human immunodeficiency virus 1, MT4, 96 h, Table A-9, four days.
The compound `Cc1cnc2c(c1)CN(S(C)(=O)=O)c1c(C)c([C@H](OC(C)(C)C)C(=O)O)c(C3=CCC(C)(C)CC3)c(C)c1-2` [Compound 404] gave a pEC50 greater than 8.11. On the same count and under the same terms, the figure for `Cc1ccc(-c2c(C)c3c(c(C)c2[C@H](OC(C)(C)C)C(=O)O)N(S(C)(=O)=O)Cc2c(F)ncc(F)c2-3)cc1` [Compound 403] is 7.84; for `Cc1ccc(-c2c(C)c3c(c(C)c2[C@H](OC(C)(C)C)C(=O)O)N(S(C)(=O)=O)Cc2cc(Cl)cnc2-3)cc1` [Compound 407] it is greater than 8.11.

The same assay, now with this note: Table A-2, four days.
`Cc1ccc(-c2c(C)c3c(c(C)c2[C@H](OC(C)(C)C)C(=O)O)NS(=O)(=O)Cc2cc(C)ccc2-3)cc1` [Compound 117]: the pEC50 was 7.72. Still for that read-out and setting: under `Cc1ccc(-c2c(C)c3c(c(C)c2[C@H](OC(C)(C)C)C(=O)O)N(S(C)(=O)=O)Cc2cc4c(cc2-3)OCCO4)cc1` [Compound 105] stands 7.42.

The same assay, now with this note: Table A-7, four days.
Compound `Cc1c(-c2ccc(Cl)cc2)c([C@H](OC(C)(C)C)C(=O)O)c(C)c2c1-c1ncc(F)cc1CN2S(C)(=O)=O` [Compound 325] gave a pEC50 of 7.96.

The values are drawn from patent publication US20180362543A1, “HIV REPLICATION INHIBITOR” (Shionogi & Co., Ltd., priority 2013, published 2018).
